Laboratory results: patent US10508092B2, “Synthesis of novel analogs of diptoindonesin G, compounds formed thereby, and pharmaceutical compositions containing them” (Wisconsin Alumni Research Foundation, priority 2016, dated 2019)
“And” between values parts separate entries of the source, which are not always exact repeats. Equal entries are not always repeated.

Assays:
[1] = Maximum tolerated dose in mouse models; settings: in vivo, five days out of seven
Procedure: Dip G was synthesized as described and formulated for the in vivo treatment. Dip G was prepared by dissolving the stock powder in 100% DMSO to a final concentration of 50 mg/ml. This stock solution was then diluted 1:5 into a 40% polyethylene glycol (PEG300)/40% normal saline (0.9% NaCl) solution to a final concentration of 20% Dip G solution. […] To determine MTD, escalating doses of Dip G dissolved in the aforementioned formulation were injected retro-orbitally or by oral gavage daily, five days out of seven to determine the MTD. […] (Data not shown.) Dip G was intra-tumorally delivered to ERα-positive T47D xenografted mice three times a week and the tumors were monitored for three weeks. […] (AST ELISAs are available commercially from several suppliers, including Abcam, Cambridge, Mass.)

T47D xenograft tumor = T47D xenograft tumor growth in mice, intra-tumoral dosing; format: in vivo, mouse
Procedure: Dip G inhibited growth of T47D xenograft tumor in vivo. Dip G was synthesized as described and formulated for the in vivo treatment. Dip G was prepared by dissolving the stock powder in 100% DMSO to a final concentration of 50 mg/ml. This stock solution was then diluted 1:5 into a 40% polyethylene glycol (PEG300)/40% normal saline (0.9% NaCl) solution to a final concentration of 20% Dip G solution. The maximum tolerated dose (MTD) of Dip G was determined to be 50 mg/kg by oral and 20 mg/kg by retro-orbital injection in mouse models. To determine MTD, escalating doses of Dip G dissolved in the aforementioned formulation were injected retro-orbitally or by oral gavage daily, five days out of seven to determine the MTD. […] (Data not shown.) Dip G was intra-tumorally delivered to ERα-positive T47D xenografted mice three times a week and the tumors were monitored for three weeks. […] Control-treated tumors were 70% of original size, while tumors (n=16) treated with Dip G were 46% of original size (FIG. 3). Under these treatment conditions, some Dip G-treated tumors completely regressed. […] (AST ELISAs are available commercially from several suppliers, including Abcam, Cambridge, Mass.)
Diptoindonesin G (Dip G) was obtained from the small molecule screening facility. Dip G was prepared by dissolving the stock powder in 100% DMSO to a final concentration of 50 mg/mL. This stock solution was then diluted 1:5 into a 40% polyethylene glycol (PEG 300)/40% normal saline (0.9% NaCl) solution to a final concentration of 20% Dip G solution. Vehicle was prepared identically, substituting DMSO instead of Dip G solution. PEG and saline were filtered at […] prior to use to ensure sterility.
Twelve Foxn1-nu homozygous mice were obtained from The Jackson Laboratory (Bar Harbor, Me.). Mice were randomized to control or active treatment prior to estrogen pellet placement. After allowing time for acclimatization, estrogen pellets were surgically inserted into the test mice, subcutaneously on the back. The skin at the site of surgery was prepared by washing with povidone iodine, allowing a three-minute contact time. Surgery was performed in a laminar flow hood while mice were under anesthesia. Incisions of less than 1 cm were made low in the back using a short scissors. Slow-release estrogen pellets (0.05 mg/60 day release) were implanted in each incision. Wounds were sealed with “VETBOND”®-brand surgical adhesive (3M Company, St. Paul, Minn.). At the same time, the mice were injected with 10^7 T-47D cells (ATCC HTB-133) twice, once in each mammary fat pad underneath the leg with 100 uL of fluid per injection site, using 25G needles.
Mice were monitored twice weekly for weight changes and tumor growth (measured in diameter and volume) with calipers. Following tumors reaching an appropriate size (˜5 mm in diameter, taking approximately 3 months after grafting), intra-tumoral injections were begun with vehicle containing 20 mg/kg of Dip G or control vehicle in a total volume of 50 μL split between tumors on each mammary fat pad. Three mice (6 tumors) received control injections and eight (16 tumors) received Dip G. Injections were administered 3 times per week with at least one day of rest between injections, for a total of 10-12 injections. Cohorts were sacrificed by cage individually in numerical order, beginning with the 10th injection and sacrificing one cage per injection for pharmacokinetic time points from that injection onward. In mice with very small tumors, dosing was switched from intra-tumoral to subcutaneous at later time points.

[2] = tested on: estrogen receptor α (ERα); settings: breast cancer, Zhao et al. 2015; cited from earlier work
[3] = individual tumor, 20 mg/kg intra-tumoral 3 times per week, 20 mg/kg

SMILES: O=C1c2c(O)cc(O)cc2-c2c(-c3ccc(O)cc3)oc3cc(O)cc1c23 [Dip G, diptoindonesin G]
- MTD ([1]; oral gavage daily): 50 mg/kg
- MTD ([1]; other: retro-orbital injection, retro-orbital injection daily): 20 mg/kg
- tumor size as % of original size (T47D xenograft tumor; T47D xenograft, 20 mg/kg intra-tumoral 3 times per week, 21 days, n=16 tumors, control 70%): 46%
- responders (tumors decreasing by 50% or more) (T47D xenograft tumor; T47D xenograft, 12 of 16 tumors, control 17%, p=0.023): 75%
- xenografted tumor growth (T47D xenograft tumor; T47D xenograft, 21 days, versus vehicle-treated controls): strongly inhibited
- decrease in tumor volume (T47D xenograft tumor; T47D xenograft, at study completion, n=16 tumors, control 30%): 54%
- Tumor Volumes, Day 3 (T47D xenograft tumor; [3]): 113.1 mm^3 and 29.8 mm^3 and 71.4 mm^3 and 25.7 mm^3 and 69.6 mm^3 and 17.2 mm^3 and 126.0 mm^3 and 79.8 mm^3 and 144.9 mm^3 and 40.7 mm^3 and 43.3 mm^3 and 70.7 mm^3 and 30.8 mm^3 and 15.1 mm^3 and 149.4 mm^3 and 68.9 mm^3
- Tumor Volumes, Day 5 (T47D xenograft tumor; [3]): 100.0 mm^3 and 34.7 mm^3 (2×) and 36.0 mm^3 and 58.8 mm^3 (2×) and 23.1 mm^3 and 108.0 mm^3 and 84.7 mm^3 and 152.5 mm^3 and 51.6 mm^3 and 44.0 mm^3 and 36.1 mm^3 and 18.9 mm^3 and 111.6 mm^3 and 87.7 mm^3
- Tumor Volumes, Day 8 (T47D xenograft tumor; [3]): 74.1 mm^3 and 20.0 mm^3 and 26.0 mm^3 and 14.5 mm^3 and 52.9 mm^3 and 14.0 mm^3 and 65.0 mm^3 and 55.0 mm^3 and 99.1 mm^3 and 32.8 mm^3 and 46.6 mm^3 and 55.2 mm^3 and 20.7 mm^3 and 21.8 mm^3 and 43.6 mm^3 and 40.3 mm^3
- Tumor Volumes, Day 10 (T47D xenograft tumor; [3]): 106.2 mm^3 and 73.0 mm^3 and 39.2 mm^3 and 37.6 mm^3 and 64.8 mm^3 and 28.1 mm^3 and 105.6 mm^3 and 95.3 mm^3 and 123.0 mm^3 and 49.0 mm^3 and 56.1 mm^3 and 58.2 mm^3 and 32.9 mm^3 and 44.5 mm^3 and 63.6 mm^3 and 67.7 mm^3
- Tumor Volumes, Day 12 (T47D xenograft tumor; [3]): 225.3 mm^3 and 33.6 mm^3 and 34.5 mm^3 and 18.5 mm^3 and 77.2 mm^3 and 13.9 mm^3 and 123.6 mm^3 and 0.5 mm^3 (2×) and 97.7 mm^3 and 48.7 mm^3 and 49.0 mm^3 and 63.6 mm^3 and 29.4 mm^3 and 23.1 mm^3 and 189.2 mm^3
- Tumor Volumes, Day 15 (T47D xenograft tumor; [3]): 81.6 mm^3 and 41.6 mm^3 and 35.3 mm^3 and 32.0 mm^3 and 78.0 mm^3 and 19.7 mm^3 and 72.5 mm^3 and 37.0 mm^3 and 62.5 mm^3 and 22.9 mm^3 and 35.4 mm^3 and 53.0 mm^3 and 22.0 mm^3 and 20.1 mm^3 and 92.5 mm^3 and 49.6 mm^3
- Tumor Volumes, Day 19 (T47D xenograft tumor; [3]): 91.9 mm^3 and 38.8 mm^3 and 12.0 mm^3 and 19.7 mm^3 and 45.6 mm^3 and 11.5 mm^3 and 58.8 mm^3 and 28.7 mm^3 and 90.9 mm^3 and 15.6 mm^3 and 24.6 mm^3 and 35.7 mm^3 (2×) and 14.9 mm^3 and 9.3 mm^3 and 58.2 mm^3
- Tumor Volumes, Day 23 (T47D xenograft tumor; [3]): 0.5 mm^3 and 12.2 mm^3 and 9.1 mm^3 and 29.7 mm^3 and 81.5 mm^3 and 10.3 mm^3 and 51.9 mm^3 and 13.1 mm^3 and 7.9 mm^3 and 9.5 mm^3 and 28.1 mm^3 and 29.8 mm^3 and 18.5 mm^3 and 10.1 mm^3 and 34.2 mm^3 and 14.9 mm^3
- Tumor Volumes, Day 0 (T47D xenograft tumor; individual tumor, baseline, T47D xenograft): 75.1 mm^3 and 40.3 mm^3 and 39.7 mm^3 and 71.3 mm^3 (2×) and 50.8 mm^3 and 25.4 mm^3 and 80.2 mm^3 (2×) and 96.2 mm^3 and 24.9 mm^3 and 70.2 mm^3 and 29.6 mm^3 and 23.1 mm^3 and 47.1 mm^3 and 52.9 mm^3
- stability of ERα [2]: decreases the stability
